In US6921541B2, “Formulations and methods for providing prolonged local anesthesia” (Euro-Celtique S.A., priority 1995, dated 2005):
Where two headings read alike, the source gives them in different places.

Key:
[1] = immediate release vasoconstrictor; at best; cited from earlier work

Procedure for rat sciatic nerve: The duration of local anesthesia induced by the bupivacaine-loaded microspheres, prepared from PLGA 65:35, with and without the co-administration of an augmenting agent, is tested in a rat sciatic nerve model for localized local anesthesia. […] The latency test determines the time, in seconds, before a rat withdraws its hindpaw from a hotplate set to a safe but uncomfortable temperature (56° C.).
Maximum sciatic nerve sensory blockade is defined as having a latency of about 12 seconds or higher.
In this example, a large number of pharmaceutical agents were tested for activity in augmenting the duration of local anesthetic activity. Bupivacaine-containing microspheres at about 75% loading, by weight, were injected perineurally into rat sciatic nerve at a dose of 150mg/kg (weight microspheres/weight rat) to dose of approximately 50 mg/nerve. For the injections, needle placement adjacent to the target nerve was optimized by intermittent electrical e stimulation of the target nerve (via the injection needle) with low amplitude current to produce limb flexion. For the injections, the microspheres were suspended in a carrier vehicle suitable for injection. While any pharmaceutically acceptable carrier vehicle is acceptable, for these experiments the carrier vehicle was 1% sodium carboxymethylcellulose and 1% Tween 80 in water.
Compounds to be tested were co-injected with bupivacaine containing microspheres (i.e., mixed as additives into the carrier vehicle) in a range of concentrations. Results are expressed as percent increase in duration relative to non-augmented durations that were obtained in the same animal model.

SMILES: COc1cc2c(c(OC)c1OC)-c1ccc(OC)c(=O)cc1[C@@H](NC(C)=O)CC2 [Colchicine]
- Duration Anesthesia As Percent of Control (rat sciatic nerve; 0.1 % additive conc., Placebo (no bupivacaine)): 0% of Control
- Duration Anesthesia As Percent of Control (toxicity noted) (rat sciatic nerve; 10 % additive conc. in carrier vehicle, LAB 150 mg/kg): toxic
- Duration Anesthesia As Percent of Control (rat sciatic nerve; 10 % additive conc., no LAB): 0% of Control

SMILES: CNC[C@H](O)c1ccc(O)c(O)c1 [epinephrine]
- prolongation of local anesthetic activity [1]: about 1 hour
